Laboratory results: PMC3871175 (Nature Communications, 2012)
pIC50: −log10 of the molar value.

Biological target: ABCA4 (Bos taurus, UniProt F1MWM0)
Type: biochemical

Sequence of ABCA4 (F1MWM0 whole entry): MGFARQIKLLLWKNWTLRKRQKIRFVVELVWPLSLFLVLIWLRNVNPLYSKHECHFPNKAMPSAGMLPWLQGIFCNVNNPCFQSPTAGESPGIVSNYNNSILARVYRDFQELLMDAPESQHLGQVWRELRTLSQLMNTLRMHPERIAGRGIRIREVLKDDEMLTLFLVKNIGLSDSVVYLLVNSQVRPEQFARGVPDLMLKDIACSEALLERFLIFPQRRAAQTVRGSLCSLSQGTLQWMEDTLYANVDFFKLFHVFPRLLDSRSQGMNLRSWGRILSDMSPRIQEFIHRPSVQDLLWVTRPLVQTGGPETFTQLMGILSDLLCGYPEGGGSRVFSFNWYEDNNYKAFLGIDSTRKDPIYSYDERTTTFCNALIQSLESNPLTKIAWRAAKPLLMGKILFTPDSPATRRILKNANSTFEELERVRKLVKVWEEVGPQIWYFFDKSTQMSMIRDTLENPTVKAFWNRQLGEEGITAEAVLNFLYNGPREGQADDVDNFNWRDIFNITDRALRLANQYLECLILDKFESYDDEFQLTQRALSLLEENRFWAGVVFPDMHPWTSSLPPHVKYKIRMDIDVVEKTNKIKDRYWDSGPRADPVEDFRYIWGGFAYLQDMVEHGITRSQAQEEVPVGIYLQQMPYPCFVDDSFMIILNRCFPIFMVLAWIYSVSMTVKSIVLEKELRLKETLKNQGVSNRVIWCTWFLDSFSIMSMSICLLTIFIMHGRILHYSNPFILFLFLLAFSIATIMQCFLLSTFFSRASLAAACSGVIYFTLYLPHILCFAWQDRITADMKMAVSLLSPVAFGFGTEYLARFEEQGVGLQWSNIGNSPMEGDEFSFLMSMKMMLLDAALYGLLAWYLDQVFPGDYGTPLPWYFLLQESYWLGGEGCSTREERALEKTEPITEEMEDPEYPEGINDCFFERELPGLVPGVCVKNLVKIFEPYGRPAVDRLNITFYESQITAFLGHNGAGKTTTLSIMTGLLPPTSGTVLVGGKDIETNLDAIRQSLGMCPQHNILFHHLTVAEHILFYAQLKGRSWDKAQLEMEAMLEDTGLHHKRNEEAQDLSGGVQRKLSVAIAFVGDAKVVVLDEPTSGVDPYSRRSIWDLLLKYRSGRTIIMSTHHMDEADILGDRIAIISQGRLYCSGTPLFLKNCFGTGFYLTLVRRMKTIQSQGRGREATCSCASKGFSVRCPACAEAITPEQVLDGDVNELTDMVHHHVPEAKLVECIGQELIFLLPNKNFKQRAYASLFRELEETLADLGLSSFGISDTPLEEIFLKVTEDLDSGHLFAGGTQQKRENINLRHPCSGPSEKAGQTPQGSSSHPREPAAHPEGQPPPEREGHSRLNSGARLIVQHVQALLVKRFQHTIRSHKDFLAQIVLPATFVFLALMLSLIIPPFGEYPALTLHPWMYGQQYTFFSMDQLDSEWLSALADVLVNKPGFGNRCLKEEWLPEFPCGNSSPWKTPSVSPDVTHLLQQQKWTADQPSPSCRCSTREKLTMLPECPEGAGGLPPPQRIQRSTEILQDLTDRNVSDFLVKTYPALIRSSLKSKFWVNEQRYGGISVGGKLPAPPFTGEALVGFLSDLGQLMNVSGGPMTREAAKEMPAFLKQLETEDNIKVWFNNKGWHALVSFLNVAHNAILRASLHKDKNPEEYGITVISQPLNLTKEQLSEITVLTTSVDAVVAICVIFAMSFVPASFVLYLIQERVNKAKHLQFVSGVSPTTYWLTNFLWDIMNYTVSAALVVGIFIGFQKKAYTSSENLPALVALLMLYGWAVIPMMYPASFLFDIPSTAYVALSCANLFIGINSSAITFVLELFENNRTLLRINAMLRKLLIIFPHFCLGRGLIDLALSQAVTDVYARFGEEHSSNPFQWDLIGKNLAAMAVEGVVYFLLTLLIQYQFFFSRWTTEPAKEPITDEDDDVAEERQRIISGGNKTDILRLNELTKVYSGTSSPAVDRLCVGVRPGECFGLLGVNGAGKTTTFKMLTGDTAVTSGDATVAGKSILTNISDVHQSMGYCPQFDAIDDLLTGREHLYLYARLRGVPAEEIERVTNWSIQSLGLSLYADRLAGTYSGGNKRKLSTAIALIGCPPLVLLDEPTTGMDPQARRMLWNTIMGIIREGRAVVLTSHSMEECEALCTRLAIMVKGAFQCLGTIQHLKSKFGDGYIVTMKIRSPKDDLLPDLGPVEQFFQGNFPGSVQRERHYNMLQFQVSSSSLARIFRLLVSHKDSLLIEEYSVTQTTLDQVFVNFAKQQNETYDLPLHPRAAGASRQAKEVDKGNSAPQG

Work on N-retinyl-PE yielded a pIC50 of 5.05.
